From patent EP4755878A1, “PHOTOCHROMIC COMPOUND, PHENOL DERIVATIVE, CURABLE COMPOSITION, OPTICAL ARTICLE, LENS, AND EYEGLASS” (TOKUYAMA CORPORATION, priority 2023, dated 2025)

Legend:
[1] = Photochromic properties of photochromic layer (binder sheet) made by binder method; settings: for Color developing density at 23°C: absorbance difference after 240 seconds irradiation at 23°C; for Color developing density at 35°C: absorbance difference after 240 seconds irradiation at 35°C; for Maximum absorption wavelength: after color development, second absorption wavelength (lower line of pair)
Description: This is the maximum absorption wavelength after color development determined by a spectrophotometer manufactured by Otsuka Electronics Co., Ltd. (instantaneous multichannel photo detector MCPD3000) and was used as an index of a color tone upon color development.
This is a difference between an absorbance {ε(240)} after irradiation with light at the above-mentioned maximum absorption wavelength at 23°C for 240 seconds and an absorbance ε(0) when not irradiated with light, and was used as an index of a color developing density. The higher this value is, the better photochromic property is.
This is a difference between an absorbance {ε(240)} after irradiation with light at first and second absorption wavelengths at 35°C for 240 seconds and an absorbance ε(0) when not irradiated with light, and was used as an index of a color developing density. The higher this value is, the better photochromic property is.
Color developing density at 35°C (A35) /color developing density at 23°C (A23) × 100(%). The higher this value is, the smaller the difference in color developing density between the higher temperature and the lower temperature is, and the smaller the temperature dependence is.
This is the period of time required for the absorbance at a maximum absorption wavelength of a sample to decrease to 1/2 of {ε(240)-ε(0)}, when light irradiation is stopped after the sample had been irradiated with light at 23°C for 240 seconds, and was used as an index of a color fading rate. The shorter this period of time is, the higher the color fading rate is.
A binder sheet was made according to the following method. […] As the first and second optical sheets, polycarbonate sheets with a thickness of 400 µm were used.
Note that the photochromic compound was added to be 0.25 mmol relative to 100 parts by mass of the terminally non-reactive urethaneurea resin.

[2] = Photochromic properties of photochromic cured product made by kneading method; assay type: physicochemical; settings: for Maximum absorption wavelength: 1 mm, after color development, second absorption wavelength (lower line of pair); for Color developing density at 23°C: absorbance difference after 240 seconds irradiation at 23°C; for Color developing density at 35°C: absorbance difference after 240 seconds irradiation at 35°C
Excerpt: First, the photochromic compound obtained in Example 1, additives, and polymerizable compounds were mixed to obtain a curable composition. As the polymerizable compounds, a blend of the following polymerizable monomers in combination was used. • 1,3-Bis(isocyanatomethyl)cyclohexane: 36.7 parts by mass Pentaerythritol tetrakis(3-mercaptopropionate): 39.4 parts by mass • Polyoxyethylene polyoxypropylene lauryl ether (WONDERSURF 140 from Aoki Oil Industrial Co., Ltd.): 17.4 parts by mass 1-Decanethiol: 2.8 parts by mass • RX-1 prepared according to the method described in Patent Document 12: 3.8 parts by mass Note that in the curable composition, the photochromic compound was added to be 0.106 mmol taking the total amount of the polymerizable monomers as 100 g.
The following additives were used. Dimethyltin dichloride: 0.05 parts by mass • Irganox 245 from BASF Japan Ltd.: 0.1 parts by mass • 2-Ethylhexyl 4-methoxycinnamate: 0.6 parts by mass
The prepared curable composition was sufficiently degassed, and then injected into a glass mold provided with a gap of 1 mm, and the curable composition was polymerized via casting polymerization. […] After the polymerization, the cured product was removed from the glass mold, to obtain photochromic cured product having a thickness of 1 mm. The resulting photochromic cured product was evaluated in the same manner as in Example 23.
(Examples 51 to 60, and Comparative Examples 11 to 14) Photochromic cured products were formed using the photochromic compound shown in Table 6 in the same manner as in Example 50.

[3] = Photochromic properties of photochromic laminate (plastic lens) made by coating method; assay type: physicochemical; settings: for Color developing density at 23°C: absorbance difference after 240 seconds irradiation at 23°C; for Color developing density at 35°C: absorbance difference after 240 seconds irradiation at 35°C; for Maximum absorption wavelength: after color development, second absorption wavelength (lower line of pair)
Excerpt: First, the photochromic compound obtained in Example 1 above, a photoinitiator, and polymerizable compounds were mixed to obtain a curable composition.
As the polymerizable compounds, a blend of the following radically-polymerizable monomers in combination was used.
• Polyethylene glycol dimethacrylate (average molecular weight: 736): 42 parts by mass • Polyethylene glycol dimethacrylate (average molecular weight: 536): 12 parts by mass • Trimethylolpropane trimethacrylate: 38 parts by mass • γ-Methacryloyloxypropyltrimethoxysilane: 2 parts by mass • Glycidyl methacrylate: 1 part by mass.
Note that in the curable composition, the photochromic compound obtained in Example 1 above was added to be 0.25 mmol taking the total amount of the radically-polymerizable monomers as 100 g. The following were used as additives.
(stabilizer, Irganox 245): 1 part by mass Bis(1,2,2,6,6-pentamethyl-4-piperidyl) sebacate: 3 parts by mass Leveling agent from DuPont Toray Specialty Materials K.K. (L7001): 0.1 parts by mass.
Note that the above-mentioned additives are described with blending ratios taking a total of the radically-polymerizable monomers as 100 parts by mass.
Using this curable composition, a photochromic laminate was obtained by a lamination process described below with the polymerization described below being carried out.
First, a thiourethane plastic lens with a center thickness of 2 mm and a refractive index of 1.60 was prepared as an optical substrate. Note that the thiourethane plastic lens had been alkaline-etched beforehand in a 10% aqueous sodium hydroxide solution at 50°C for 5 minutes, and then thoroughly washed with distilled water.
A spin coater (1H-DX2, manufactured by MIKASA CO., LTD) was used to coat a surface of the above-mentioned plastic lens with a moisture-curable primer (product name: TR-SC-P, manufactured by Tokuyama Corporation) at a rotation speed of 70 rpm for 15 seconds, followed by at 1000 rpm for 10 seconds. Then, about 2 g of the photochromic curable composition obtained as above was spin-coated at a rotation speed of 60 rpm for 40 seconds, followed by at 600 rpm for 10 to 20 seconds so as to achieve a photochromic coating layer with a film thickness of 40 µm.
The lens having the surface coated with the photochromic curable composition (photochromic coating layer) was irradiated with light for 90 seconds in a nitrogen gas atmosphere using a metal halide lamp with an output of 200 mW/cm^2 to cure the coating film. The coating was then further heated at 110°C for 1 hour to produce a photochromic laminate with a photochromic layer.
Photochromic laminates were produced using the photochromic compounds obtained in Examples 2 to 19 in the same manner as in Example 20.
Photochromic laminates were obtained in the same manner as in Example 20 using photochromic compounds represented by the following formulas (A) to (F). [drawing 143] [drawing 144] [drawing 145] [drawing 146] [drawing 147] [drawing 148] [drawing 149] [drawing 150]
The resulting photochromic laminates were evaluated by the methods described below.
Table 3 summarizes the results of Examples 20, 32, and 34, and Comparative Examples 1 to 6, and Table 4 summarizes the results of Examples 21 to 31, 33, and 35 to 38. The relationship between the fading half-life at 23°C and the color development ratio at the higher temperature of the photochromic laminates according to Examples and Comparative Examples are shown in a graph in FIG. 1.
Photochromic laminates were formed using the photochromic compound obtained in Examples 61 to 71 in the same manner as in Example 20.

Compound	Color developing density at 23°C ([1]; first absorption wavelength)	Color developing density at 23°C ([1]; second absorption wavelength)	Color developing density at 35°C ([1]; first absorption wavelength)	Color developing density at 35°C ([1]; second absorption wavelength)	Maximum absorption wavelength [1] [nm]	Maximum absorption wavelength [2] [nm]	Color developing density at 23°C ([2]; first absorption wavelength)	Color developing density at 23°C ([2]; second absorption wavelength)	Color developing density at 35°C ([2]; first absorption wavelength)	Color developing density at 35°C ([2]; second absorption wavelength)	Color developing density at 23°C ([3]; first absorption wavelength)	Color developing density at 23°C ([3]; second absorption wavelength)	Color developing density at 35°C ([3]; first absorption wavelength)	Color developing density at 35°C ([3]; second absorption wavelength)	Maximum absorption wavelength [3] [nm]
CCCOc1ccc(C2(c3ccc(OC)cc3)C=Cc3c4c(c5cc6c(cc5c3O2)OC(C)(C)S6)-c2ccc(N3CCCc5ccccc53)cc2C4(CCCOC)CCCOC)cc1 (centres unmarked) [Formula (7-4)]	1.33 -	0.72 -	0.89 -	0.49 -	622	625	1.35 -	0.72 -	0.95 -	0.50 -	1.30 -	0.71 -	0.90 -	0.49 -	622
COc1ccc(C2(c3ccc(OC)cc3)C=Cc3c4c(c5ccc(OC)cc5c3O2)-c2ccc(N(C)c3ccccc3)cc2C4(C)C)cc1 [Formula (1-7)]	0.88 -	1.08 -	0.63 -	0.80 -	613	621	0.89 -	1.09 -	0.67 -	0.84 -	0.86 -	1.06 -	0.64 -	0.81 -	616
CCCCC1(CCCC)c2cc(N(CC)c3ccccc3)ccc2-c2c1c1c(c3cc(C)c(-c4ccc(OC)cc4)cc23)OC(c2ccc(C)cc2)(c2ccc(N(C)c3ccccc3)cc2)C=C1 (centres unmarked) [Formula (12-5)]	0.87 -	1.51 -	0.61 -	1.08 -	625	632	0.88 -	1.52 -	0.67 -	1.15 -	0.86 -	1.49 -	0.64 -	1.11 -	624
COc1ccc(C2(c3ccc(OC)cc3)C=Cc3c4c(c5ccc(OC)cc5c3O2)-c2ccc(N3CCOc5ccccc53)cc2C4(C)C)cc1 [Formula (13-2)]	0.90 -	1.04 -	0.63 -	0.74 -	608	616	0.90 -	1.04 -	0.66 -	0.78 -	0.87 -	1.02 -	0.63 -	0.75 -	608
COc1ccc(C2(c3ccc(OC)cc3)C=Cc3c4c(c5ccc(OC)cc5c3O2)-c2ccc(N(c3ccccc3)c3ccccc3)cc2C4(C)C)cc1 [Formula (15-2)]	0.93 -	1.08 -	0.67 -	078 -	616	622	0.95 -	1.10 -	0.70 -	0.83 -	0.92 -	1.07 -	0.67 -	0.79 -	619
CCCCOc1ccc(C2(c3ccc(OCCCC)cc3)C=Cc3c4c(c5ccc(OC)cc5c3O2)-c2ccc(C)cc2C4(C)C)cc1 [Formula (B), reference compound]	0.75 -	0.98 -	0.50 -	0.67 -	580	586	0.76 -	0.98 -	0.53 -	0.69 -	0.69 -	0.96 -	0.48 -	0.65 -	579
COc1ccc(C2(c3ccc(OC)cc3)C=Cc3c4c(c5ccc(Oc6ccccc6)cc5c3O2)-c2ccc(N(c3ccccc3)c3ccccc3)cc2C4(CCCCF)CCCCF)cc1 [Formula (8-2)]	0.77 -	1.01 -	0.51 -	0.69 -	609	618	0.78 -	1.02 -	0.55 -	0.70 -	0.75 -	0.99 -	0.52 -	0.69 -	610
CCCOc1ccc(C2(c3ccc(OC)cc3)C=Cc3c4c(c5cc(C)c(OC)cc5c3O2)-c2ccc(N3CCSc5ccccc53)cc2C4(CCC)CCC)cc1 (centres unmarked) [Formula (9-2)]	1.04 -	0.91 -	0.73 -	0.64 -	607	614	1.05 -	0.92 -	0.78 -	0.69 -	1.01 -	0.90 -	0.74 -	0.66 -	609
COc1ccc(C2(c3ccc(OC)cc3)C=Cc3c4c(c5ccc(OC)cc5c3O2)-c2ccc(OC(F)(F)F)cc2C4(C)C)cc1 [Formula(F), reference compound]	–	–	–	–	–	–	–	–	–	–	0.62 -	0.75 -	0.37 -	0.45 -	565
